Earlier results on one substance are cited in paper PMC5618157, “The Role of Disulfide Bond Replacements in Analogues of the Tarantula Toxin ProTx-II and Their Effects on Inhibition of the Voltage-Gated Sodium Ion Channel Nav1.7” (Journal of the American Chemical Society, 2017).

The subject of one series is Nav1.7. The following applies: read-out: IC50 against Nav1.7. An excerpt: ProTx-II has been the subject of particular interest from researchers as a possible lead for the treatment of chronic nociceptive pain.[4] […] Nav1.7 has been implicated as a target for the treatment of chronic pain after loss-of-function mutations in the corresponding SCN9A gene left their carriers unable to feel pain, with seemingly no ...

The subject of a further series is mouse model (analgesia). The following applies: injections of ProTx-II. An excerpt:
Despite these structural studies, much remains unknown about the mechanism of action of ProTx-II on Nav1.7. […] Instead, studies into the interaction of ProTx-II and HwTx-IV with hNav1.7 proposed that both peptides interact with the domain II voltage-sensing domain (VSD), with ProTx-II also trapping the domain IV VSD in the resting configuration.[38] Mutagenesis experiments on ProTx-II by Park and co-workers,[36] and investiga ...

Broadly, the IC50 is the concentration needed to halve the response being measured. Regarding ProTx-II, the IC50 with Nav1.7 is 0.3 nM. Also, the “analgesia in a mouse model” value in the series with mouse model (analgesia) is listed as “failed to elicit analgesia”.
